Laboratory results as given in PubChem BioAssay (NCI).
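48-hour exposure; five concentrations; linearly interpolated endpoints. Definition used: TGI = concentration required for complete inhibition of growth.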

Assays:
Assay in all cases: inhibition of tumour cell growth, NCI panel, 48 h
[1] = system: SF-295 CNS
[2] = system: SK-MEL-28 melanoma
[3] = system: HCC-2998 colon
[4] = system: OVCAR-5 ovarian
[5] = system: MOLT-4 leukemia
[6] = system: COLO 205 colon
[7] = system: SNB-75 CNS
[8] = system: U251 CNS
[9] = system: RPMI-8226 leukemia
[10] = system: OVCAR-3 ovarian
[11] = system: HOP-92 NSCLC
[12] = system: SF-268 CNS

Compound	TGI [1] [µM]	TGI [2] [µM]	TGI [3] [µM]	TGI [4] [µM]	TGI [5] [µM]	TGI [6] [µM]	TGI [7] [µM]	TGI [8] [µM]	TGI [9] [µM]	TGI [10] [µM]	TGI [11] [µM]	TGI [12] [µM]
Cc1ccc(C[P+]2(c3ccccc3)CCCCC2)cc1	> 100	> 100	60.8	> 100	> 100	30.2	76.9	42.4	46.8			
CC(=O)OC/C=C/Cn1ncc(=O)[nH]c1=O		> 100	> 100	> 100	> 100	> 100	> 100	> 100	> 100	> 100	> 100	> 100
CC(C)OC(=O)C1=C(O)c2ccccc2S(=O)(=O)N1	> 100	> 100	> 100	> 100	> 100	> 100	> 100	> 100		> 100		> 100
N=c1nc2n(cc1F)[C@@H]1O[C@H](CO)[C@@H](O)[C@@H]1O2	> 100	> 100	> 100	> 100	18.9	> 96.9	> 95	> 91.9	> 100	> 100	> 65.1	> 100
O=C1Nc2ccccc2S/C1=C\c1ccccc1C(F)(F)F	> 100	> 100		> 100	> 100	> 100	92.3	> 100	> 100	> 100	> 100	> 100
O=[As](O)(O)c1ccc(N=Nc2ccc([As](=O)(O)O)cc2)cc1	> 100	> 100		> 100	> 100			> 100		> 100	> 100	> 100
Cc1ccc([N+](=O)[O-])cc1NC(=O)C(=O)C(C(=O)c1ccccc1F)C1OC(=O)c2ccccc21 (centres undefined)	> 100	> 100	84.6	> 100	> 100	> 100	> 100	43.6	> 100		> 100	98.8
Oc1c2c(c3c4c1N=CC=4CCN=3)-c1c(Br)cc(Br)cc1CCN2	11	21.8	4.72	8.66		2.62	22.6	12.2	17.5		26.7	15.5
O=[N+]([O-])c1ccc2c(c1)Nc1c3ccccc3nc3cccc-2c13	6.98	24.8	0.341	20.5	34.6	19.8	11.7	18.6	> 39	3.8	18.8	40.5
O=C(N/C(=C\c1cccc([N+](=O)[O-])c1)c1nc2[nH]c(=S)[nH]c(=O)c2[nH]1)c1ccccc1	> 100	> 100	> 100	> 100	> 100	> 100	> 100	> 100	> 100	> 100	> 100	> 100
Nc1nncc2c1ccn2C1OC(CO)C(O)C1O (centres undefined)	> 100	> 100	> 100	> 100	> 100	> 100	> 100	> 100	> 100	> 100	> 100	> 100
Cc1ccc(S(=O)(=O)N/N=c2\c(C)c(C3=NS(=O)(=O)c4cc(S(N)(=O)=O)c(Cl)cc4N3)oc3c(Cl)cc(Cl)cc23)cc1	> 100	> 100	> 100	> 100	> 100	47.8	> 100	67.9	> 100	> 100	> 100	> 100
Nc1c(-c2nc3ccccc3o2)sc(=S)n1-c1ccc(Cl)cc1	27.3	37.7	> 100	> 100	> 100	> 100		37.5	> 100	38.1	63.3	33.9
O=C(O)c1cc2cc(c1)N=Cc1ccccc1OCc1cccc(n1)COc1ccccc1C=N2	22.1	> 25		> 25	> 25	> 25	> 25	> 25	22	13.2	> 25	> 25
Cc1cc2c(cc1C)[n+](=O)c(C#N)c(Cl)n2[O-]	> 100	42.5	23.7	25.8	48.5	21.7	45.2	70.9	55.6	20.6	30.3	> 100
